Assay results: paper PMC7359024, “Synthesis, Structure–Activity Relationship, and Mechanistic Studies of Aminoquinazolinones Displaying Antimycobacterial Activity” (ACS Infectious Diseases, 2020)
pIC50: −log10 of the molar value. Converted amounts (≈) assume the structure as drawn. Read-outs that look alike come from different tables or passages of the source.

Key:
[1] = assay type: in vitro ADME; details: for Metabolic Stability H (% Rem.): human liver microsomes; for Metabolic Stability M (% Rem.): mouse liver microsomes; for Metabolic Stability R (% Rem.): rat liver microsomes
Description: 3.2. Microsomal stability
The metabolic stability assay was performed in duplicate in a 96-well micro titre plate. The test compounds (0.1 μM) were incubated individually in mouse, rat and pooled human liver microsomes ((final protein concentration of 0.4 mg/mL; XenoTech, Lenexa, KS ), suspended in 0.1M phosphate buffer (pH 7.4) at 37 °C for predetermined time points, in the presence and absence of the cofactor NADPH (1 mM). Reactions were quenched by adding ice cold acetonitrile containing internal standard (carbamazepine, 0.0236 µg/mL). T he samples were centrifuged and test compound in the supernatant were analysed by means of LC -MS/MS (Agilent Rapid Resolution HPLC, AB SCIEX 4500 MS ). The relative loss of parent compound over time was monitored and plots (concentration vs. time) were prepared per compound to determine the first order rate constant for compound depletion. This was in turn used to calculate half-life, in vitro intrinsic clearance and in vivo hepatic extraction ratio. Metabolite searches were not conducted during the metabolic stability assay. 5

physchem = assay type: physicochemical; details: for solubility: kinetic solubility, pH 7.4, HPLC method
Description: The kinetic solubility assay was performed using a miniaturised shake flask method. 10 mM stock solutions of each of the test compounds were used to prepare calibration standards (10-220μM) in DMSO. The same 10mM stock solutions were accurately dispensed in duplicate into 96-well plates and the DMSO dried down (MiVac GeneVac, 90 min, 37 °C). Thereafter, the samples were reconstituted (200 µM) in phosphate buffered saline (pH 7.4) and shaken (20 hours, 25 °C). The solutions were filtered and analysed by means of HPLC -DAD (Agilent 1200 Rapid Resolution HPLC with a diode array detector). […]

Mtb H37Rv strain = assay: MIC90 determination in GASTE-Fe media (broth microdilution); assay type: cell-based, Mycobacterium tuberculosis; details: Mtb H37Rv, replicating conditions, GASTE-Fe media, read 14 days after incubation, read-out: MIC90 GASTE-Fe
in vitro = details: Chinese hamster
[2] = Mycobacterium tuberculosis, H37RV, 336 h

SMILES	Metabolic Stability H (% Rem.) [1]	Metabolic Stability M (% Rem.) [1]	Metabolic Stability R (% Rem.) [1]	solubility (physchem; 25 °C, pH 7.4, aqueous buffer) [µM]	solubility (physchem) [µM]	fold improvement in solubility (physchem; pH 7.4, relative to comparator analogue) [fold]	MIC90 (Mtb H37Rv strain; [2]) [µM]	pIC50 (in vitro)	MIC90 (Mtb H37Rv strain) [µM]
Cc1ccc(S(C)(=O)=O)cc1-c1ccc2nc(N)n(-c3ccc(C(F)(F)F)cc3)c(=O)c2c1 [compound 7]	65 % Rem.	90 % Rem.	86 % Rem.	53.3 (≈ 25.2 µg/mL)	53 (≈ 25.1 µg/mL)	10	4.22 (≈ 2 µg/mL)	< 4.00	
NC(=O)c1cccc(-c2ccc3nc(N)n(-c4ccc(C(F)(F)F)cc4)c(=O)c3c2)c1 [compound 9]	97/-/- % Rem.			< 5			< 0.244	< 4.00	
CS(=O)(=O)c1cccc(-c2ccc3c(=O)n(-c4ccc(C(F)(F)F)cc4)c(N)nc3c2)c1 [compound 30]	99/99/99 % Rem.	99/99/99 % Rem.	99/99/99 % Rem.	< 5			1.39 (≈ 0.639 µg/mL)	< 4.30	
Nc1nc2ccc(-c3cncnc3)cc2c(=O)n1-c1ccc(C(F)(F)F)cc1 [compound 21]	94/-/- % Rem.			40 (≈ 15.3 µg/mL)			10 (≈ 3.83 µg/mL)	< 4.00	
Nc1nc2ccc(-c3cccnc3)cc2c(=O)n1-c1ccc(C(F)(F)F)cc1 [compound 22]	68/-/- % Rem.			20 (≈ 7.65 µg/mL)			0.625 (≈ 0.239 µg/mL)	< 4.00	
CN1CCN(C(=O)c2cccc(-c3ccc4nc(N)n(-c5ccc(C(F)(F)F)cc5)c(=O)c4c3)c2)CC1 [compound 19]	97 % Rem.	94 % Rem.	86 % Rem.	51 (≈ 25.9 µg/mL)			1.57 (≈ 0.797 µg/mL)	< 4.30	
CNC(=O)c1cccc(-c2ccc3nc(N)n(-c4ccc(C(F)(F)F)cc4)c(=O)c3c2)c1 [compound 11]	98 % Rem.	100 % Rem.	100 % Rem.	< 5			0.78 (≈ 0.342 µg/mL)	4.02	
Cc1cncc(-c2ccc3nc(N)n(-c4ccc(C(F)(F)F)cc4)c(=O)c3c2)c1 [compound 23]	87/-/- % Rem.			< 5			> 2	< 4.00	2.5 (≈ 0.991 µg/mL)
Nc1nc2ccc(-c3cccc(C(=O)O)c3)cc2c(=O)n1-c1ccc(C(F)(F)F)cc1 [compound 20]	99 % Rem.	98 % Rem.	97 % Rem.	29 (≈ 12.3 µg/mL)			112 (≈ 47.6 µg/mL)	< 4.00	
